{"source": "patent US20250361274A1", "about": "“PEPTIDE AND PEPTIDE-CONTAINING AGENT” (PEPTIDREAM INC., priority 2022, published 2025)", "key": {"[1]": {"target": "T1, BMP5 (Homo sapiens, UniProt P22003)", "T1 sequence (P22003 317-454)": "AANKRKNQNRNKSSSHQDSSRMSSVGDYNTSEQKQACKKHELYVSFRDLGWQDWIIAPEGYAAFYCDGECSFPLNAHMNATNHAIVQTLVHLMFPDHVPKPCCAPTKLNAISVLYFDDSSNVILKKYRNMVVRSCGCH", "assay": "BMP family signal transduction inhibition (SMAD1 phosphorylation), BMP5 stimulus", "type": "cell-based", "text": "In the present Example, BMP4 signal transduction inhibition peptide No. 177, peptide No. 29986 (SEQ ID NO: 277 (Example 8)), and peptide SEQ ID NO: 417 (Example 6) synthesized in Example 2, Example 8, and Example 6 were verified in the same manner as in Example 13 in order to confirm presence or absence of signal transduction inhibitory activities obtained by BMPs 2, 5, 6, 9, 12, and 14 belonging to the respective BMP families.\nRegarding the concentrations of the respective BMPs in the evaluation, 0.3 nM of BMP2, 2 nM of BMP5, 3 nM of BMP6, 10 nM of BMP9 and BMP12, and 0.6 nM of BMP14 were added, followed by application of stimulus.\nRegarding No. 177, the concentrations of the peptides were as follows. Specifically, eight concentrations of the peptides were used at a common ratio of 1/3 starting from 10 nM (BMP2), starting from 200 nM (BMP5), starting from 100 nM (BMP6), starting from 1,000 nM (BMP9 and BMP12), and starting from 60 nM (BMP14). The evaluation was performed in the same manner as in Example 11 except for the above points. Note that recombinant Human Noggin Protein (R&D) as a positive control was used at the same concentration as the peptide.\nRegarding the peptide SEQ ID NO: 277 (Example 8), the concentrations of the peptides were as follows. […]"}, "[2]": {"target": "T2, BMP4 (Homo sapiens, UniProt P12644)", "T2 sequence (P12644 293-408)": "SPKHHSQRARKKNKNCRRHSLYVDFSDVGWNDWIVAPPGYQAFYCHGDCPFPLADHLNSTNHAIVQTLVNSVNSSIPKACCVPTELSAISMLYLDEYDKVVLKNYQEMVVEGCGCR", "assay": "BMP4 signal transduction inhibitory activity: SMAD1 phosphorylation by BMP4 stimulus, AlphaLISA SureFire, A549 cells", "type": "cell-based"}}, "note": "“Also recorded” adds a separate entry of the source. Numbered stars: 1 amine (or outer) side, 2 acyl side, 3 side chain; on linkers, the order of the positions; unused ones are H or OH. Bridge positions count the residues as written; N and C are the ends. Square brackets hold non-standard residues; d marks the D form. Peptide text beside a SMILES is read from it. ξ: configuration not given here. X2 = O=C(C[C@@H](Cc1ccc(-c2ccccc2)cc1)C(=O)[*:2])[C@@H]1CCCN1[*:1]; Phe(4-COOH) = N[C@@H](Cc1ccc(C(=O)O)cc1)C(=O)O; Bip = N[C@@H](Cc1ccc(-c2ccccc2)cc1)C(=O)O; Nle(6-COOH) = N[C@@H](CCCCC(=O)O)C(=O)O; X1 = N=C(CN)NCCC[C@H](N[*:1])C(=O)[*:2]; Ala(4-THP) = N[C@@H](CC1CCOCC1)C(=O)O; ξE = NC(CCC(=O)O)C(=O)O; βAla = NCCC(=O)O", "data": [{"smiles": "CC(C)[C@@H]1NC(=O)[C@H](CCCNC(=N)N)NC(=O)[C@H](CCCCC(=O)O)NC(=O)CSC[C@@H](C(=O)NCCC(=O)NC(CCC(=O)O)C(=O)O)NC(=O)[C@H](CO)NC(=O)[C@H](Cc2ccc(C(=O)O)cc2)NC(=O)[C@H](Cc2ccc(C(=O)O)cc2)NC(=O)[C@H](Cc2ccc(O)cc2)NC(=O)[C@H](Cc2ccc(-c3ccccc3)cc2)CC(=O)[C@@H]2CCCN2C(=O)[C@H](Cc2ccc(O)cc2)NC(=O)[C@@H]2CCCN2C(=O)[C@H](Cc2ccc(-c3ccccc3)cc2)NC(=O)[C@H](CCCNC(=N)CN)NC(=O)[C@H](CC(=O)O)NC(=O)[C@H](CC2CCOCC2)NC(=O)[C@H](Cc2ccc(C(=O)O)cc2)NC1=O", "note": "(stereo partly shown) [SEQ ID No. 177] ({CH2CO}-[Nle(6-COOH)]RV[Phe(4-COOH)][Ala(4-THP)]D[X1][Bip]PY[X2]Y[Phe(4-COOH)][Phe(4-COOH)]SC[βAla][ξE]-OH; thioether N-16)", "values": [{"measurement": "BMP5 signal transduction inhibitory activity (in words)", "setting": "[1]", "value": "signal transduction inhibitory activities of BMP2, BMP5, and BMP6"}, {"measurement": "BMP4 inhibitory activity (in words)", "setting": "[2]", "value": "same level of the BMP4 inhibitory activity as Noggin; also recorded: signal transduction inhibitory activities of BMP4 and BMP7"}, {"measurement": "IC50", "setting": "[2]; Table 2, eight concentrations, ratio 1/3 from 2 nM, A549 cells", "value": 0.053, "unit": "nM"}, {"measurement": "aLISA BMP4", "setting": "[2]; class of inhibition of SMAD1 phosphorylation by BMP4 stimulus, AlphaLISA, A549 cells", "value": "A (showed an inhibitory activity of 50% or more in a zone to which the peptide was added to in an amount of 0.2 nM)"}]}]}
